According to ChEMBL document CHEMBL4342426, “Structure-activity relationship of 4-azaindole-2-piperidine derivatives as agents against Trypanosoma cruzi” (Bioorg Med Chem Lett, 2020):

How the values were obtained:
cells = conditions: Homo sapiens, MRC-5 SV2, 72 h
Description: (§1) Cytotoxicity against human MRC5 SV2 cells assessed as reduction in cell viability incubated for 3 days by fluorimetry

Macrophage = experiment: cells; conditions: Mus musculus, 72 h
Description: (§2) Cytotoxicity against mouse peritoneal Macrophage cells assessed as reduction in cell viability incubated for 3 days by fluorimetry

in vitro [1] = conditions: human, MRC5 SV2 cells
Description: as §1

in vitro [2] = conditions: human, liver microsomes
Description: Metabolic stability in human liver microsomes assessed as intrinsic clearance at 0.5 uM incubated for 30 mins by LC-MS/MS analysis

in vitro [3] = conditions: mouse, liver microsomes
Description: Metabolic stability in mouse liver microsomes assessed as intrinsic clearance at 0.5 uM incubated for 30 mins by LC-MS/MS analysis

physchem = conditions: buffer, pH 7.4
Description: Lipophilicity, logD of compound at pH 7.4 by HPLC analysis

in vitro [4] = conditions: human, MRC5 SV2 cells; remark: listed apart in the source
Description: Selectivity index, ratio of IC50 for human MRC5 SV2 cells to IC50 for Trypanosoma cruzi Tulahuen CL2 amastigotes infected in human MRC5 SV2 cells

in vitro [5] = conditions: mouse, peritoneal macrophages
Description: as §2

in vitro [6] = conditions: PAMPA
Description: Effective permeability of compound by PAMPA assay

Trypanosoma cruzi = experiment: microbe, parasite or virus in culture; conditions: Tulahuen CL2, MRC-5 SV2, 168 h
Description: Antitrypanosomal activity against Trypanosoma cruzi Tulahuen CL2 amastigotes infected in human MRC5 SV2 cells incubated for 7 days by chlorophenol red beta-D-galactopyranoside substrate based spectrophotometric assay

Trypanosoma brucei = experiment: microbe, parasite or virus in culture; conditions: Squib 427, 72 h
Description: Antitrypanosomal activity against Trypanosoma brucei Squib 427 assessed as reduction in parasite growth incubated for 72 hrs by resazurin dye based fluorimetric analysis

[7] = tested on: Trypanosoma brucei rhodesiense; experiment: microbe, parasite or virus in culture; conditions: STIB900, 72 h
Description: Antiprotozoal activity against Trypanosoma brucei rhodesiense STIB900 trypomastigotes incubated for 72 hrs by resazurin dye based fluorimetric analysis

Leishmania infantum = experiment: microbe, parasite or virus in culture; conditions: for IC50: MHOM/MA(BE)/67/ITMAP263, 120 h; for IC90: MHOM/MA(BE)/67/ITMAP263, in Mus musculus, 120 h
Description: Antileishmanial activity against amastigote stage of Leishmania infantum MHOM/MA(BE)/67/ITMAP263 infected in mouse peritoneal macrophage assessed as parasite growth inhibition incubated for 5 days by Giemsa staining based assay

in vitro [8] = conditions: mouse, liver microsomes; remark: listed apart in the source
Description: Metabolic stability in mouse liver microsomes assessed as fraction unbound at 0.5 uM incubated for 30 mins by LC-MS/MS analysis

Compound	IC50 (cells) [µM]	IC50 (Macrophage) [µM]	IC90 at 72 h (in vitro [1]) [µM]	CLint scaled at 0.5 h, 0.5 µM (in vitro [2]) [mL/min/kg]	microsomal CLint at 0.5 h, 0.5 µM (in vitro [2]) [µL/min/mg]	CLint scaled at 0.5 h, 0.5 µM (in vitro [3]) [mL/min/kg]	microsomal CLint at 0.5 h, 0.5 µM (in vitro [3]) [µL/min/mg]	logD (physchem)	selectivity ratio (in vitro [4])	IC90 at 72 h (in vitro [5]) [µM]	Papp (in vitro [6]) [×10⁻⁶ cm/s]	IC50 (Trypanosoma cruzi) [µM]	IC90 (Trypanosoma cruzi) [µM]	IC50 (Trypanosoma brucei) [µM]	IC90 (Trypanosoma brucei) [µM]	IC50 [7] [µM]	IC90 [7] [µM]	IC50 (Leishmania infantum) [µM]	IC90 (Leishmania infantum) [µM]	fraction unbound at 0.5 h, 0.5 µM (in vitro [8])
O=C(c1ccc(F)cc1)N1CCC(c2cc3ncccc3[nH]2)C1 (configuration not stated)	64	64	64	68.7	44.6	5590	1230	2.62	7.15	64	1.58	8.99	64	64	64	43.9	64	64	64	
Cn1nccc1C(=O)N1CCCC(c2cc3ncccc3[nH]2)C1 (configuration not stated)	64	64	64	33.5	27.5	115	31.9	1.8		64	1.03 to 1.37	64	64	64	64	64	64	64	64	0.89
O=C(c1ccccc1)N1CCCC(c2cc3ncccn3n2)C1 (configuration not stated)	64	64	64	468	91.3	19200	1270	2.3		64	16.5	64	64	64	64	64	64	64	64	0.211
Cc1nc(C)c(C(=O)N2CCCC(c3cc4ncccc4[nH]3)C2)o1 (configuration not stated)	64	64	64	< 31.2	< 23	314	78.8	2.15		64	1.56 to 2.14	64	64	64	64	64	64	64	64	0.801
Cc1ccoc1C(=O)N1CCCC(c2cc3ncccc3[nH]2)C1 (configuration not stated)	64	64	64	167	129	6690	1750	2.86	3	64	3.09	21.3	55.5	64	64	64	64	64	64	
O=C(c1ccc(C(F)(F)F)nc1)N1CCCC(c2cc3ncccc3[nH]2)C1 (configuration not stated)	64	64	64	50.3	27.9	132	24.9	2.68		64	0.887	64	64	64	64	64	64	64	64	0.6
O=C(c1ccccc1)N1CCCC(c2cn3ncccc3n2)C1 (configuration not stated)	64	64	64	167	135	10500	2900	2.39		64	13.9	64	64	64	64	64	64	64	64	0.877
O=C(c1ccccc1)N1CCN(c2nc3ccccc3s2)CC1	64	64	64			24700	4010	3.4		64	40.4	64	64	64	64	64	64	64	64	0.518
O=C(c1ccccc1)N1CCCC(c2nc3ncccc3[nH]2)C1 (configuration not stated)	64	64	64	< 35	< 23	763	173	1.97		64	2.43	64	64	64	64	64	64	64	64	0.723
CC(C)(C)OC(=O)N1CCCC(c2cn3nc(Cl)ccc3n2)C1 (configuration not stated)	64	64	64	> 200	185	> 11300	3540	4.04	2.15	64	22.4	29.5	60.3	64	64	64	64	64	64	
O=C(c1cc(C(F)(F)F)n[nH]1)N1CCCC(c2cc3ncccc3[nH]2)C1 (configuration not stated)	64	64	64	278	127	832	128	3.07		64	0.881	64	64	64	64	64	64	64	64	0.493
